One assay concerns NF-κB. The assay can be described thus: NF-κB luciferase reporter assay (pNF-κB-Luc), HCT116. In kind it is cell-based, human. Conditions: HCT116, 30-150 μg/ml, 8 h. The protocol:
FIG. 1B: Colon cancer cells were transfected with pNF-κB-Luc plasmid (5×NF-κB) and then activated with TNF-α (150 U/ml) alone or TNF-α plus different concentrations (30-150 μg/ml) of thiacremonone at 37° C. in both SW620 (panel a and b) and HCT116 (panel c and d) colon cancer cells, and then the luciferase activity was determined. All values represent mean±S.D. of three independent experiments performed in triplicate. RLU is relative to luciferase activity in transfected unstimulated cells. *P<0.05 indicates statistically significant differences from the TNF-α-treated group.
SW620 and HCT116 human colon cells (2.5×10^5 cells/cm^2) were plated in 24-well plates and transiently transfected with pNF-κB-Luc plasmid (5×NF-κB; Stratagene, La Jolla, Calif., USA) using a mixture of plasmid and lipofectAMINE PLUS in OPTI-MEN according to manufacturer's specifications (Invitrogen, Carlsbad, Calif., USA). The transfected cells were treated with tumor necrosis factor-α (TNF-α) (10 ng/ml) or TPA (50 nM) and different concentrations (30-150 μg/ml) of thiacremonone for 8 h. Luciferase activity was measured by using the luciferase assay kit (Promega, Madison, Wis., USA) according to the manufacturer's instructions (WinGlow, Bad Wildbad, Germany).
On the technique in general: In a reporter assay the amount or activity of a reporter protein is the signal.

The test system of assay [1] is SW620 colon cancer cells. Kind of assay: Cell viability / growth, CCK-8 assay, SW620. It is filed as cell-based. As to conditions: Homo sapiens, SW-620, read-out: IC50 of cell growth inhibition, heading: IC50 of cell growth inhibition, SW620, 48 h. The method, then: Panel b of FIGS. 2A-2C: Cell viability was determined by CCK-8 assay as described in Materials and Methods. SW620 (FIG. 2A) and HCT116 (FIG. 2B) colon cancer cells as well as normal cells (Caco-2) (FIG. 2C) were treated with various doses (30-150 μg/ml) of thiacremonone for different times (12-48 h). Values are each the mean±S.D. of three experiments, each performed in triplicate.
SW620 and HCT116 colon cancer cells were plated at a density of 10^4 cells/well in 96-well plates per 100 μl medium. To determine the appropriate concentration that is not cytotoxic to the cells, the cytotoxic effect was evaluated in cells cultured for 12, 24, 36, and 48 h using the cell counting kit-8 assay kit according to the manufacturer's instructions (Dojindo, Gaithersburg, Md., USA). Briefly, 10 μl of the CCK-8 solution was added to cells cultured for the designated time. The plates were incubated for 1-4 h in the incubator. The resulting color was assayed at […] using a microplate absorbance reader (Sunrise, Tecan, Switzerland). Each assay was carried out in triplicate.
A general note: Tetrazolium dyes change colour on reduction, which living cells bring about.

Assay [2] relates to HCT116 colon cancer cells. The assay can be described thus: Apoptosis detection, DAPI/TUNEL staining, HCT116. In kind it is cell-based, human. As to conditions: 24 h. The protocol: FIG. 3B: The apoptotic index was determined as the DAPI-stained TUNEL-positive cell number counted. Values are mean±S.E.M. of three experiments, each performed in triplicate. *P<0.05 indicates statistically significant differences from the untreated group.
Apoptosis assay was first performed by using 4,6-diamino-2-phenylindole (DAPI) staining. SW620 and HCT116 human colon cancer cells were cultured in the absence or presence of increasing concentrations of thiacremonone, and induction of apoptotic cell death was evaluated after 24 h. Apoptotic cells were determined by the morphological changes after DAPI staining under fluorescence microscopic observation (DAS microscope, 100× or 200×: Leica Microsystems, Inc., Deefield, Ill., USA). Apoptosis was also evaluated by TUNEL staining assay. In short, cells were cultured on 8-chamber slides. After treatment with thiacremonone (30-150 μg/ml) for 24 h, the cells were washed twice with PBS and fixed by incubation in 4% paraformaldehyde in PBS for 1 h at room temperature. TUNEL assays were performed by using the in situ Cell Death Detection Kit (Roche Diagonostics GmbH, Mannheim, Germany) according to manufacturer's instructions. Total number of cells in a given area was determined by using DAPI and TUNEL staining. The apoptotic index was determined as the number of DAPIstained TUNEL-positive cells divided by the total cell number counted ×100.

In assay [3] the test system is SW620 colon cancer cells. The assay can be described thus: Western blot of apoptosis regulatory proteins, SW620. It is filed as cell-based, human. As to conditions: SW620, 30-150 μg/ml, 24 h. The method, then: The cells were treated with different concentrations (30-150 μg/ml) of thiacremonone at 37° C. for 24 h. Equal amounts of total proteins (50 μg/lane) were subjected to 12% SDS-PAGE. Expressions of Bax, cleaved caspase-3, cleaved PARP, Bcl-2, cIAP1/2, XIAP, and β-actin were detected by western blotting using specific antibodies. β-Actin protein was used an internal control. Panel a: SW620 colon cancer cells. Panel b: HCT116 colon cancer cells. Each band is representative of three independent experiments.
Cultured cells were washed twice with 1×PBS, followed by the addition of 1 ml of PBS, and the cells were scraped into a cold Eppendorf tube. Cells were homogenized with lysis buffer [50 mM Tris pH 8.0, 150 mM NaCl, 0.02% sodium azide, 0.2% SDS, 1 mM PMFS, 10 μl/ml aprotinin, 1% igapel 630 (Sigma-Aldrich, St. Louis, Mo., USA), 10 mM NaF, 0.5 mM EDTA, 0.1 mM EGTA, and 0.5% sodium deoxycholate] and centrifuged at 23,000×g for 15 min. The protein concentration was measured by the Bradford method (Bio-Rad Protein Assay; Bio-Rad Laboratories Inc., Hercules, Calif., USA), and equal amount of proteins (50 μg) were separated on a SDS/12%-polyacrylamide gel and then transferred to a Hybond ECL nitrocellulose membrane (Amersham Pharmacia Biotech Inc., Piscataway, N.J., USA). Blots were blocked for 2 h at room temperature with 5% (w/v) non-fat dried milk in Tris-buffered saline [10 mM Tris (pH 8.0) and 150 mM NaCl] solution containing 0.05% tween-20. […] Immunoreactive proteins were detected with the ECL Western blotting detection system. The relative density of the protein bands was scanned by densitometry using MyImage (SLB) and quantified by Labworks 4.0 software (UVP Inc.).
A general note: A western blot detects proteins with antibodies after separation by electrophoresis.

The structures appear in SMILES notation. ≈ marks a conversion by molar mass, not a printed value.

For orientation: IC50 means the midpoint of a concentration-inhibition curve.

With `CC1=C(O)C(=O)C(C)(O)S1` (stereo not shown) [thiacremonone, 2,4-dihydroxy-2,5-dimethyl-thiophene-3-one], the “TNF-α and TPA induced NF-κB luciferase activity” value with NF-κB is “inhibited TNF-α and TPA induced NF-κB luciferase activity dose-dependently”. Also, the IC50 in the assay on SW620 colon cancer cells [1] worked out at 105 µg/mL (≈ 655 µM). Also, the apoptotic cell number in assay [2] (HCT116, 30 μg/ml) worked out at 0%; in assay [2] (HCT116, 60 μg/ml), 0%; in assay [2] (HCT116, 90 μg/ml) it was 29%; in assay [2] (HCT116, 120 μg/ml) it was 95%; in assay [2] (HCT116, 150 μg/ml) it was 98%. Also, in the assay on SW620 colon cancer cells [3], the “Expressions of apoptotic proteins Bax, cleaved caspases 3, cleaved PARP” value was “increased”. Besides, the “expressions of antiapoptotic protein Bcl-2, cIAP1/2, XIAP and cyclin D1” value in the assay with SW620 colon cancer cells [3] is reported as “decreased”. In addition, the “iNOS and COX-2 expression” value in the assay with SW620 colon cancer cells [3] was “inhibited the expressions dose-dependently”.

The values are drawn from patent US7759391B2, “Pharmaceutical composition comprising thiacremonone for treating colon cancer” (Chungbuk National University Industry Academic Cooperation …, priority 2007, dated 2010).
